Test results published in patent US8901307B2, “Chemical compounds 251” (AstraZeneca AB, priority 2008, dated 2014).
Counter-ions that a name gives are not always drawn.

Key:
[1] = target: T1, human His-PIM1 [2-313] (Homo sapiens, UniProt P11309); assay: PIM1 in-vitro mobility shift assay (Caliper LC3000, FL-Ahx-Bad phosphorylation); format: biochemical; conditions: 1.5 h; percent inhibition at 0.3 uM compound; read-out: PIM1 % I at 0.3 uM
T1 construct: purified human His-PIM1 [2-313] enzyme; His (N); purchased University of Dundee, Scotland; host or cells: baculovirus system
Text: PIM1 In-Vitro Mobility Shift Assay
(§1) One may determine the activity of purified human His-PIM1 [2-313] enzyme in-vitro using a mobility shift assay on a Caliper LC3000 reader (Caliper, Mass.), which measures fluorescence of a phosphorylated and unphosphorylated FL-Ahx-Bad (FITC-(AHX)RSRHSSYPAGT-COOH, Primm 200606-00289, Primm Biotech, Mass.) and calculates a ratiometric value to determine percent turnover. One may express PIM1 (University of Dundee, Scotland) in baculovirus system with a typical yield of >85% purity.
(§2) One determines phosphorylation of the FL-Ahx-Bad in the presence and absence of the compound of interest. One preincubates 5 µl of Enzyme/Substrate/adenosine triphosphate (ATP) mix consisting of 2.4 nM PIM1, 3.6 uM FL-Ahx-Bad, and 240 uM ATP in 1.2× buffer with 2 ul of compound for 20 minutes at 25° C. One initiates reactions with 5 ul of Metal mix consisting of 24 mM MgCl2 in 1.2× buffer and incubated at 25° C. for 90 minutes and stops the reactions by addition of 5 ul of Stop mix consisting of 100 mM HEPES, 121 mM ethylenediamine tetraacetic acid, 0.8% Coatin Reagent 3 (Caliper, Mass.), and 0.01% Tween. One detects phosphorylated and unphosphorylated substrate by a Caliper LC3000 reader (Caliper, Mass.) in the presence of separation buffer consisting of 100 mM HEPES, 16 mM ethylenediamine tetraacetic acid, 0.1% Coatin Reagent 3 (Caliper, Mass.), 0.015% Brij-35, 5% DMSO, and 5.6 mM MgCl2. One may use the following separation conditions for a Caliper LC3000: −1.0 PSI, −2000 V upstream voltage, −400 V downstream voltage, 0.2 second sample sip, 45 second post sip, 10% laser strength.
The table 1 below provides the percent inhibition of PIM1 at 0.3 micromolar for Examples provided herein. Several examples were tested more than once. Variations in the experimental outcomes, negative values, or values over 100% inhibition are presumably due to experimental error inherent in the assay.

[2] = target: T2, human His-PIM2 [23-299] (Homo sapiens, UniProt Q9P1W9); assay: PIM2 in-vitro mobility shift assay (Caliper LC3000, FL-Ahx-Bad phosphorylation); format: biochemical; conditions: 1.5 h; percent inhibition at 0.3 uM compound; read-out: PIM2 % I at 0.3 uM
T2 construct: purified human His-PIM2 [23-299] enzyme; His (N); host or cells: E. coli
Text: PIM2 In-Vitro Mobility Shift Assay
as §1, with “His-PIM2 [23-299]” for “His-PIM1 [2-313]”, “PIM2 (produced at AstraZeneca, R&D Boston)” for “PIM1 (University of Dundee, Scotland)”, “E. coli cells” for “baculovirus system”, “>90%” for “>85%”
as §2, with “5 uL” for “5 µl”, “and 12” for “and 240”, “5 uL” for “5 ul”, “and incubates” for “and incubated”, “90 minutes. One” for “90 minutes and”, “stops” for “stops the”

T2 sequence (Q9P1W9 23-299): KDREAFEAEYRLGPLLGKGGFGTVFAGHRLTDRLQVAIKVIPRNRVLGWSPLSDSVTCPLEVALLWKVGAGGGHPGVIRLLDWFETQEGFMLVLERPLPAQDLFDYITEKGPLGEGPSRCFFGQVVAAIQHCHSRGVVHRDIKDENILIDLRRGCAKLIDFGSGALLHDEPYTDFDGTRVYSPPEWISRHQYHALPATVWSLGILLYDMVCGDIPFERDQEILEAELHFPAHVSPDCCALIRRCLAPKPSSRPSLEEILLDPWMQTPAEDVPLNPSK
T1 sequence (P11309 2-313): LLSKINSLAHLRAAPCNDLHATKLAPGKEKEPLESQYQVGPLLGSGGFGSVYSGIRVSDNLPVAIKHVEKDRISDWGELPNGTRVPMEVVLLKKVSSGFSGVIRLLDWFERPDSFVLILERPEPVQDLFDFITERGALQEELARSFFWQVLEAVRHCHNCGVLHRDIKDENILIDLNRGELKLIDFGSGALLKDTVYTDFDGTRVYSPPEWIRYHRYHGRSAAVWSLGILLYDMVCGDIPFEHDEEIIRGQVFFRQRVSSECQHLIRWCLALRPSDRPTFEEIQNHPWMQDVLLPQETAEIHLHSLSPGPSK

inhibition at 0.3 µM [1] [%]	inhibition at 0.3 µM [2] [%]	Compound
> 95	> 95	CC(C)Oc1cccc(/C=C2\SC(=O)NC2=O)c1N1CC[C@H](N)C1 [Example 122P, (S,Z)-5-(2-(3-aminopyrrolidin-1-yl)-3-isopropoxybenzylidene)thiazolidine-2,4-dione hydrochloride]
> 95	66.3	NCCC(=O)N1CCN(c2ccc(C(F)(F)F)cc2/C=C2\SC(=O)NC2=O)CC1 [Example 93, (Z)-5-(2-(4-(3-aminopropanoyl)piperazin-1-yl)-5-(trifluoromethyl)benzylidene)thiazolidine-2,4-dione hydrochloride]
> 95	> 95	COCCOc1cccc(/C=C2\SC(=O)NC2=O)c1N1CC[C@H](N)C1 [Example 122AB, (S,Z)-5-(2-(3-aminopyrrolidin-1-yl)-3-(2-methoxyethoxy)benzylidene)thiazolidine-2,4-dione hydrochloride]
> 95	> 95	COc1cc(/C=C2\SC(=O)NC2=O)c(N2CCC(N)C2)cc1OC (stereo not drawn) [Example 118, (5Z)-5-[2-(3-aminopyrrolidin-1-yl)-4,5-dimethoxybenzylidene]-1,3-thiazolidine-2,4-dione hydrochloride]
82.8	44.6	COCC(=O)N[C@H]1CCN(c2c(Cl)cccc2/C=C2\SC(=O)NC2=O)C1 [Example 136]
89.7	69.4	C[C@@H]1CN(c2c(Cl)cccc2/C=C2\SC(=O)NC2=O)C[C@H](C)N1 [Example 37, (Z)-5-(3-chloro-2-((3S,5R)-3,5-dimethylpiperazin-1-yl)benzylidene)thiazolidine-2,4-dione]
< 5		O=C1NC(=O)/C(=C/c2cnc3[nH]ccc3c2)S1 [Example 80, (5Z)-5-(1H-pyrrolo[2,3-b]pyridin-5-ylmethylene)-1,3-thiazolidine-2,4-dione]
> 95	> 95	COc1cccc(/C=C2\SC(=O)NC2=O)c1N1CC[C@H](N(C)C)C1 [Example 36, (S,Z)-5-(2-(3-(dimethylamino)pyrrolidin-1-yl)-3-methoxybenzylidene)thiazolidine-2,4-dione]
87.6	19.7	O=C1NC(=O)/C(=C/c2cc(C(F)(F)F)cc(Cl)c2N2CCN(CCCO)CC2)S1 [Example 23]
> 95	49.6	O=C1NC(=O)/C(=C/c2cc(C(F)(F)F)cc(Cl)c2N2CCCN(CCO)CC2)S1 [Example 26]
> 95	79.9	O=C1NC(=O)/C(=C/c2cc(C(F)(F)F)cc(Cl)c2N2CCCNCC2)S1 [Example 5A]
> 95	> 95	CNCCNC1CCN(c2cc(OC)c(OC)cc2/C=C2\SC(=O)NC2=O)C1 (stereo not drawn) [Example 113, (Z)-5-(4,5-dimethoxy-2-(3-(2-(methylamino)ethylamino)pyrrolidin-1-yl)benzylidene)thiazolidine-2,4-dione hydrochloride]
91.5	60.8	CCCN(CCC)[C@@H]1CCCN(c2c(Cl)cccc2/C=C2\SC(=O)NC2=O)C1 [Example 148, (R,Z)-5-(3-chloro-2-(3-(dipropylamino)piperidin-1-yl)benzylidene)thiazolidine-2,4-dione]
> 95	81.5	O=C1NC(=O)/C(=C/c2cc(C(F)(F)F)ccc2N2CCN(C(=O)C3CCCNC3)CC2)S1 (stereo not drawn) [Example 92, (Z)-5-(2-(4-(piperidine-3-carbonyl)piperazin-1-yl)-5-(trifluoromethyl)benzylidene)thiazolidine-2,4-dione hydrochloride]
> 95	67	CN(C)[C@H]1CCN(c2ccc(C(F)(F)F)cc2C=C2SC(=O)NC2=O)C1 [Example 84H, (S)-5-(2-(3-(dimethylamino)pyrrolidin-1-yl)-5-(trifluoromethyl)benzylidene)thiazolidine-2,4-dione]
87.4	52.4	CN(C)CCN(C)S(=O)(=O)c1ccc(-c2ccccc2/C=C2\SC(=O)NC2=O)cc1 [Example 84F, (Z)-N-(2-(dimethylamino)ethyl)-2′-((2,4-dioxothiazolidin-5-ylidene)methyl)-N-methylbiphenyl-4-sulfonamide]
> 95	67.1	N[C@H]1CCN(c2ccccc2/C=C2\SC(=O)NC2=O)C1 [Example 122X, (S,Z)-5-(2-(3-aminopyrrolidin-1-yl)benzylidene)thiazolidine-2,4-dione hydrochloride]
> 95	> 95	COc1cc(/C=C2\SC(=O)NC2=O)c(N2CCC(NCCN)C2)cc1OC (stereo not drawn) [Example 111, (Z)-5-(2-(3-(2-aminoethylamino)pyrrolidin-1-yl)-4,5-dimethoxybenzylidene)thiazolidine-2,4-dione hydrochloride]
11	< 5	CC(C)(C)OC(=O)N1CCN(c2ccc(C(F)(F)F)cc2/C=C2\SC(=O)NC2=O)CC1 [Example 55, (Z)-tert-butyl 4-(2-((2,4-dioxothiazolidin-5-ylidene)methyl)-4-(trifluoromethyl)phenyl)piperazine-1-carboxylate]
88.9	48.5	N#CCC(=O)N[C@H]1CCN(c2c(Cl)cccc2/C=C2\SC(=O)NC2=O)C1 [Example 146]
> 95	> 95	NCCCN[C@@H]1CCCN(c2c(Cl)cccc2/C=C2\SC(=O)NC2=O)C1 [Example 129B]
62.1	17.5	COc1ccc(OCCN2CCOCC2)c(/C=C2\SC(=O)NC2=O)c1 [Example 62, (Z)-5-(5-methoxy-2-(2-morpholinoethoxy)benzylidene)thiazolidine-2,4-dione]
16	7.1	CC(C)(C)OC(=O)N1CCN(c2ccccc2/C=C2\SC(=O)NC2=O)CC1 [Example 58, (Z)-tert-butyl 4-(2-((2,4-dioxothiazolidin-5-ylidene)methyl)phenyl)piperazine-1-carboxylate]
81.2	49	COc1cc(/C=C2\SC(=O)NC2=O)c(N2CCC(NC(=O)CCN)C2)cc1OC (stereo not drawn) [Example 128]
< 5		CN(C)CCCOc1ccccc1/C=C1\SC(=O)NC1=O [Example 81, (5Z)-5-{2-[3-(dimethylamino)propoxy]benzylidene}-1,3-thiazolidine-2,4-dione]
	< 5	O=C1NC(=O)C(=Cc2c[nH]c3ccccc23)S1 (stereo in doubt) [Example 67, (Z)-5-((1H-indol-3-yl)methylene)thiazolidine-2,4-dione]
92.8		O=C1NC(=O)/C(=C/c2cc(C(F)(F)F)cc(Cl)c2N2CCOCC2)S1 [Example 29]
34		O=C1NC(=O)/C(=C/c2cccc(N3CCOCC3)c2)S1 [Example 83, (5Z)-5-(3-morpholin-4-ylbenzylidene)-1,3-thiazolidine-2,4-dione trifluoroacetate]
